Structures can show the parent of a compound that is named as a salt.
Tested on: DGAT
Assay: DGAT Phospholipid FlashPlate Assay
Assay type: biochemical
Details: DGAT pellet, DAG-coated PL-FlashPlate, 14C-Pal-CoA, 37° C. for 1 hour; read-out: DGAT Inhibition Activity IC50
Procedure: DGAT Phospholipid FlashPlate Assay
Materials for the assay were: PL-FlashPlate: Phospholipid FlashPlates from PerkinElmer, catalog number SMP108; DAG (1,2-Dioleoyl-sn-glycerol) 10 mM suspended in water containing 0.1% Triton X-100; ^14C-Pal-CoA (palmitoyl coenzyme A, [palmitoyl-1-^14C]) from PerkinElmer, catalog number NEC-555 with a specific activity of 55 mCi/mmol; and DGAT pellet, with a protein concentration of 9.85 mg/ml.
Aqueous buffers were prepared or purchased as follows: The coating buffer (CB) was purchased from PerkinElmer, catalog number SMP900A; the reaction buffer (RB) was 50 mM Tris-HCl, pH 7.5, 100 mM NaCl, 0.01% BSA in water; the washing buffer (WB) is 50 mM Tris-HCl, pH 7.5, 100 mM NaCl, 0.05% deoxycholic acid sodium salt in water; the dilution buffer (DB) was 50 mM Tris-HCl, pH 7.5, 100 mM NaCl, 1 mM EDTA, 0.2% Triton X-100 in water.
1,2-Dioleoyl-sn-glycerol (DAG, 10 mmoles) was diluted to 500 μM with coating buffer (CB). The diluted DAG solution was then added to 384-well PL-FlashPlates at 60 μl per well, and incubated at room temperature for 2 days. The coated plates were then washed twice with washing buffer (WB) before use. Test compounds were serial diluted to 2000, 666.7, 222.2, 74.1, 24.7, 8.2, 2.7 and 0.9 μM in 100% DMSO. Diluted compound were further diluted 10 fold with reaction buffer (RB). ^14C-Pal-CoA was diluted to 8.3 μM with RB. The DGAT pellet was diluted to 0.13 mg protein/ml with dilution buffer (DB) immediately before it was added to the PL-FlashPlates to start the reaction. 20 μl of the RB-diluted compounds (or 10% DMSO in RB for Total and Blank), 15 μl of RB diluted 14C-Pal-CoA and 15 μl of DB diluted DGAT pellet (DB without DGAT for Blanks) were transferred to each well of the PL-FlashPlates. The reaction mixtures were incubated at 37° C. for 1 hour. The reactions were stopped by washing 3 times with WB. Plates were sealed with Top-seal and read on a Topcount instrument.
Calculation of IC50: The IC50 values for each compound were generated using an Excel template. The Topcount rpm readings of Total and Blank were used as 0% and 100% inhibition. The percent inhibition values of reactions in the presence of compounds were calculated, and plotted against compound concentrations. All data were fitted into a Dose Response One Site model (4 parameter logistic model) as the following: (A+((B−A)/(1+((x/C)^D)))), with A and B as the bottom and top of the curve (highest and lowest inhibition), respectively, and C as IC50 and D as Hill Coefficient of the compound.

Row | Structure (SMILES) | IC50 [nM]
1 | CC(C)(C)OC(=O)N1CCN(c2ccc(NC(=O)c3cc4c(Cl)cccc4s3)cc2)CC1 [Example 24, 4-{4-[(4-Chloro-benzo[b]thiophene-2-carbonyl)-amino]-phenyl}-piperazine-1-carboxylic acid tert-butyl ester] | 512
2 | CC(C)(CC(=O)N1CCC(c2ccc(NC(=O)c3cc4c(Cl)cccc4s3)cc2)CC1)C(=O)O [Example 25, 4-(4-{4-[(4-Chloro-benzo[b]thiophene-2-carbonyl)-amino]-phenyl}-piperidin-1-yl)-2,2-dimethyl-4-oxo-butyric acid] | 127
3 | CC(C)(CC(=O)N1CCN(c2ccc(NC(=O)c3cc4c(Cl)cccc4s3)cc2)CC1)C(=O)O [Example 26, 4-(4-{4-[(4-Chloro-benzo[b]thiophene-2-carbonyl)-amino]-phenyl}-piperazin-1-yl)-2,2-dimethyl-4-oxo-butyric acid] | 145
4 | CCn1c(C(=O)Nc2ccc(N3CCN(C(=O)[C@H]4CC[C@H](C(=O)OCc5ccccc5)CC4)CC3)nc2)cc2c(OC)cccc21 [Example 27, trans-4-(4-{5-[(1-Ethyl-4-methoxy-1H-indole-2-carbonyl)-amino]-pyridin-2-yl}-piperazine-1-carbonyl)-cyclohexanecarboxylic acid benzyl ester] | 826
5 | CCn1c(C(=O)Nc2ccc(N3CCN(C(=O)[C@H]4CC[C@H](C(=O)O)CC4)CC3)nc2)cc2c(OC)cccc21 [Example 28, trans-4-(4-{5-[(1-Ethyl-4-methoxy-1H-indole-2-carbonyl)-amino]-pyridin-2-yl}-piperazine-1-carbonyl)-cyclohexanecarboxylic acid] | 385
6 | CCOc1cccc2c1cc(C(=O)Nc1ccc(N3CCN(C(=O)[C@H]4CC[C@H](C(=O)O)CC4)CC3)cc1)n2CC [Example 29, trans-4-(4-{4-[(4-Ethoxy-1-ethyl-1H-indole-2-carbonyl)-amino]-phenyl}-piperazine-1-carbonyl)-cyclohexanecarboxylic acid] | 980
7 | CCn1c(C(=O)Nc2ccc(C3CCN(C(=O)[C@H]4CC[C@H](C(=O)O)CC4)CC3)cc2)cc2c(C)cccc21 [Example 30, trans-4-(4-{4-[(1-Ethyl-4-methyl-1H-indole-2-carbonyl)-amino]-phenyl}-piperidine-1-carbonyl)-trans-1,4-cyclohexanecarboxylic acid] | 824
8 | CCOc1cccc2c1cc(C(=O)Nc1ccc(N3CCN(C(=O)[C@@H]4CCC[C@H]4C(=O)O)CC3)cc1)n2CC [Example 31, (1R,2R)-2-(4-{4-[(4-Ethoxy-1-ethyl-1H-indole-2-carbonyl)-amino]-phenyl}-piperazine-1-carbonyl)-cyclopentanecarboxylic acid] | 380
9 | CCOc1cccc2c1cc(C(=O)Nc1ccc(C3CCN(C(=O)[C@@H]4CCC[C@H]4C(=O)O)CC3)cc1)n2CC [Example 32, (1R,2R)-2-(4-{4-[(4-Ethoxy-1-ethyl-1,1-indole-2-carbonyl)-amino]-phenyl}-piperidine-1-carbonyl)-cyclopentanecarboxylic acid] | 495
10 | CCn1c(C(=O)Nc2ccc(N(C)CCOC)nc2)cc2cc(OC(F)(F)F)ccc21 [Example 33, 1-Ethyl-5-trifluoromethoxy-1H-indole-2-carboxylic acid {6-[(2-methoxy-ethyl)-methyl-amino]-pyridin-3-yl}-amide hydrochloride] | 662
11 | COCCN(C)c1ccc(NC(=O)c2cc3ccccc3s2)cn1 [Example 34, Benzo[b]thiophene-2-carboxylic acid {6-[(2-methoxy-ethyl)-methyl-amino]-pyridin-3-yl}-amide] | 683
12 | COCCN(C)c1ccc(NC(=O)c2sc3ccccc3c2C)cn1 [Example 35, 3-Methyl-benzo[b]thiophene-2-carboxylic acid {6-[(2-methoxy-ethyl)-methyl-amino]-pyridin-3-yl}-amide hydrochloride] | 351
13 | COCCN(C)c1ncc(NC(=O)c2sc3ccccc3c2C)cn1 [Example 36, 3-Methyl-benzo[b]thiophene-2-carboxylic acid {2-[(2-methoxy-ethyl)-methyl-amino]-pyrimidin-5-yl}-amide hydrochloride] | 856
14 | CCn1c(C(=O)Nc2ccc(N(C)CCOC)nc2)cc2ccccc21 [Example 37, 1-Ethyl-1H-indole-2-carboxylic acid {6-[(2-methoxy-ethyl)-methyl-amino]-pyridin-3-yl}-amide hydrochloride] | 425
15 | CCn1c(C(=O)Nc2ccc(N(C)CCOC)nc2)cc2c(OC)cccc21 [Example 38, 1-Ethyl-4-methoxy-1H-indole-2-carboxylic acid {6-[(2-methoxy-ethyl)-methyl-amino]-pyridin-3-yl}-amide hydrochloride] | 102
16 | CCn1c(C(=O)Nc2ccc(N(C)CCOC)nc2)cc2cc(OC)ccc21 [Example 39, 1-Ethyl-5-methoxy-1H-indole-2-carboxylic acid {6-[(2-methoxy-ethyl)-methyl-amino]pyridin-3-yl}-amide hydrochloride] | 312
17 | CCn1c(C(=O)Nc2ccc(N(C)CCOC)nc2)cc2cc(OCc3ccccc3)ccc21 [Example 40, 5-Benzyloxy-1-ethyl-1H-indole-2-carboxylic acid {6-[(2-methoxy-ethyl)-methyl-amino]-pyridin-3-yl}-amide] | 797
18 | CCCn1c(C(=O)Nc2ccc(N(C)CCOC)nc2)cc2ccccc21 [Example 41, 1-Propyl-1H-indole-2-carboxylic acid {6-[(2-methoxy-ethyl)-methyl-amino]-pyridin-3-yl}-amide hydrochloride] | 937
19 | COCCN(C)c1ccc(NC(=O)c2cc3cc(Cl)ccc3n2C)cn1 [Example 42, 5-Chloro-1-methyl-1H-indole-2-carboxylic acid {6-[(2-methoxy-ethyl)-methyl-amino]-pyridin-3-yl}-amide hydrochloride] | 750
20 | CCn1c(C(=O)Nc2ccc(N(C)CCOC)nc2)cc2cc(Cl)ccc21 [Example 43, 5-Chloro-1-ethyl-4H-indole-2-carboxylic acid {6-[(2-methoxy-ethyl)-methyl-amino]-pyridin-3-yl}-amide hydrochloride] | 161
21 | CCOc1cccc2c1cc(C(=O)Nc1ccc(N3CCN(C(=O)CC(C)(C)C(=O)O)CC3)cc1)n2CC [Example 44, 4-(4-{4-[(4-Ethoxy-1-ethyl-1H-indole-2-carbonyl)-amino]-phenyl}-piperazin-1-yl)-2,2-dimethyl-4-oxo-butyric acid] | 489
22 | CCn1c(C(=O)Nc2ccc(N(C)C3CC3)nc2)cc2cc(Cl)ccc21 [Example 45, 5-Chloro-1-ethyl-1H-indole-2-carboxylic acid [6-(cyclopropyl-methyl-amino)-pyridin-3-yl]-amide] | 668
23 | CCOC(=O)N1CC[C@H](Nc2ccc(NC(=O)c3cc4cc(Br)ccc4s3)cn2)C1 [Example 46, (S)-3-{5-[(5-Bromo-benzo[b]thiophene-2-carbonyl)-amino]pyridin-2-ylamino}-pyrrolidine-1-carboxylic acid ethyl ester hydrochloride] | 303
24 | CCOC(=O)N1CC[C@H](Nc2ccc(NC(=O)c3cc4c(Cl)cccc4s3)cn2)C1 [Example 47, (S)-3-{5-[(4-Chloro-benzo[b]thiophene-2-carbonyl)-amino]pyridin-2-ylamino}-pyrrolidine-1-carboxylic acid ethyl ester hydrochloride] | 280
25 | CCOC(=O)N1CC[C@H](Nc2ccc(NC(=O)c3cc4ccccc4s3)cn2)C1 [Example 48, (S)-3-{5-[(Benzo[b]thiophene-2-carbonyl)-amino]-pyridin-2-ylamino}-pyrrolidine-1-carboxylic acid ethyl ester hydrochloride] | 396
26 | CCOC(=O)N1CC[C@H](Nc2ccc(NC(=O)c3cc4cc(C(F)(F)F)ccc4s3)cn2)C1 [Example 49, (S)-3-{5-[(5-Trifluoromethyl-benzo[b]thiophene-2-carbonyl)-amino]-pyridin-2 ylamino}-pyrrolidine-1-carboxylic acid ethyl ester hydrochloride] | 594
27 | CCOC(=O)N1CC[C@H](Nc2ccc(NC(=O)c3cc4cc(Br)ccc4n3CC)cn2)C1 [Example 50, (S)-3-{5-[(5-Bromo-1-ethyl-1H-indole-2-carbonyl)-amino]-pyridin-2-ylamino}-pyrrolidine-1-carboxylic acid ethyl ester hydrochloride] | 929
